# Measured values as given in patent publication US11001587B2, “Substituted indazoles as phosphatidylinositol kinase inhibitors” (CUROVIR AB, priority 2017, dated 2021).
# Key:
# [1] = Metabolic stability in rat liver microsomes; format: in vitro ADME; settings: 5 μM test item, 0.125 mg/mL microsomal protein
# Method: (§1) Metabolic stability in human and rat liver microsomesMetabolic stability was studied using human (HLM) or rat (RLM) liver microsomes. The final composition of the assay included 5 μM of test item and reference item (Diclofenac or Imipramine) prepared from DMSO stock, so that the final concentration of DMSO was 0.1%, 0.125 mg/mL microsomal protein and cofactors (5.0 mM G-6-P, 0.06 U/mL G-6-PDH, 2.0 mM MgCl2, 1.0 mM NADP^+). Test and reference items were incubated with human or rat liver microsomes with or without cofactors. The reaction mixture (100 μL) was removed at specified time periods and the reaction was stopped by addition of stop solution. The samples were extracted in presence of internal standard and were analyzed using LC-MS/MS. The percent of the test/reference item remaining after a specified incubation period was calculated with respect to the peak area ratio at time 0 min.
# coxsackie B3 virus = assay: In vitro CPE assay in mammalian cell culture, B3; format: cell-based; settings: Enterovirus B, viral cytopathic effect in mammalian cell culture, read-out: B3 inhibition capacity (IC50)
# polio virus Sabin 1 = assay: organism not typed; format: cell-based; settings: read-out: Polio 1 inhibition capacity (IC50)
# Enterovirus 6 = assay: In vitro CPE assay in mammalian cell culture, EV6; format: cell-based; settings: viral cytopathic effect in mammalian cell culture, read-out: EV6 inhibition capacity (IC50)
# [2] = Metabolic stability in human liver microsomes; format: in vitro ADME; settings: for Remaining after 1 h, HLM: human liver microsomes, 5 μM test item, 0.125 mg/mL microsomal protein; for half-life at 5 μM: human, microsomes
# Method: as §1
# Enterovirus 71 = assay: In vitro CPE assay in mammalian cell culture, EV71; format: cell-based; settings: Enterovirus A, viral cytopathic effect in mammalian cell culture, read-out: EV71 inhibition capacity (IC50)
# Enterovirus 68 = assay: In vitro CPE assay in mammalian cell culture, EV68; format: cell-based; settings: Enterovirus D, viral cytopathic effect in mammalian cell culture, read-out: EV68 inhibition capacity (IC50)
# in vivo = assay: in vivo; design: species or system Sprague Dawley rats; settings: male, Sprague Dawley, rat, po, 50 mg/kg
# Method: Overnight fasted animals were administered with the test compounds in recommended vehicle 0.4% (v/v) Tween 80+2% (v/v) Glycerol and 15% w/v HPBCD by oral route with a dose of 50 mg/kg body weight at dose volume of 10 mL/kg bw. Under mild isoflurane anesthesia, blood samples were collected into pre-labeled tubes containing anticoagulant (K2EDTA—2 mg/mL blood) during the next 24 hours post dose. Collected blood samples were centrifuged at 4000 rpm, 4° C. for 10 minutes and plasma was separated and stored at −80° C. until analysis.
# PI4KIIIα = PI4KIIIα (Homo sapiens, UniProt P42356); assay: Phosphatidyl inositol kinase inhibition assay (ADP-Glo Kinase Assay); format: biochemical; settings: * no inhibition at the highest tested concentration 1 μM
# Method: (§2) Phosphatidyl inositol kinase inhibition assay Inhibition of PI4 kinases was studied using the ADP-Glo™ Kinase Assay which is a luminescent kinase assay that measures ADP formed from a kinase reaction, wherein ADP is converted into ATP, which is converted into light by Ultra-Glo™ Luciferase. The assay is performed in two steps; first, after the kinase reaction, an equal volume of ADP-Glo™ Reagent is added to terminate the kinase reaction and deplete the remaining ATP. In the second step, the Kinase Detection Reagent is added, which simultaneously converts ADP to ATP and allows the newly synthesized ATP to be measured using a coupled luciferase/luciferin reaction. The luminescent signal produced is proportional to the activity of the kinase. Inhibition of PI3 kinases was studied using the HTRF (homogeneous time-resolved fluorescence) assay, which is a universal method for identifying and characterizing the phosphotransferase activity induced by any ATP/ADP dependent target. The formation of ADP was detected by a specific monoclonal antibody labeled with Eu^3+ cryptate, and directly correlated with the amount of phosphorylated substrate.
# PI4KIIIβ = PI4KIIIβ (Homo sapiens, UniProt Q9UBF8); assay: as above; format: biochemical
# Method: as §2
# PI3Kα = PI3Kα (Homo sapiens, UniProt P42336); assay: PI3 kinase inhibition HTRF assay; format: biochemical; settings: * no inhibition at the highest tested concentration 1 μM
# Method: as §2
# PI3Kβ = PI3Kβ (Homo sapiens, UniProt P42338); assay: PI3 kinase inhibition HTRF assay; format: biochemical; settings: * no inhibition at the highest tested concentration 1 μM
# Method: as §2
# Enterovirus 30 = assay: In vitro CPE assay in mammalian cell culture, EV30; format: cell-based; settings: viral cytopathic effect in mammalian cell culture, read-out: EV30 inhibition capacity (IC50)
# coxsackie B5 virus = assay: In vitro CPE assay in mammalian cell culture, B5; format: cell-based; settings: viral cytopathic effect in mammalian cell culture, read-out: B5 inhibition capacity (IC50)
# in vitro = in vitro ADME; settings: plasma, pH 7.4
# Method: Plasma protein binding study was performed by using a Rapid Equilibrium Dialysis (RED) device containing dialysis membrane with a molecular weight cut-off of 8,000 Daltons. Each dialysis insert contains two chambers. The red chamber was for the plasma while the white chamber was for the buffer. The human and rat plasma (pH adjusted to 7.40) samples of test items and reference items (Warfarin and Propranolol) were prepared at a required test concentration of 5 μM using 5 mM DMSO stocks (final DMSO concentration was 0.1%). 300 μL of plasma sample was added into the sample chamber. 500 μL of buffer was added into the buffer chamber. After sealing the RED device with an adhesive film, incubation was done at 37° C. with shaking at 300 rpm for 4 h. Following incubation, an aliquot of 50 μL was removed from each well (plasma and buffer side) and diluted with equal volume of opposite matrix to nullify the matrix effect. The specimens were subjected to sample extraction in presence of internal standard by liquid-liquid extraction/protein precipitation method. After extraction, the samples were transferred into labeled auto sampler vials and submitted to LC-MS/MS analysis.
# coxsackie B2 virus = assay: In vitro CPE assay in mammalian cell culture, B2; format: cell-based; settings: viral cytopathic effect in mammalian cell culture, read-out: B2 inhibition capacity (IC50)
# coxsackie B1 virus = assay: In vitro CPE assay in mammalian cell culture, B1; format: cell-based; settings: viral cytopathic effect in mammalian cell culture, read-out: B1 inhibition capacity (IC50)
# coxsackie B4 virus = assay: In vitro CPE assay in mammalian cell culture, B4; format: cell-based; settings: Enterovirus B, viral cytopathic effect in mammalian cell culture, read-out: B4 inhibition capacity (IC50)
# PI3Kα, sequence (P42336 whole entry, species assumed): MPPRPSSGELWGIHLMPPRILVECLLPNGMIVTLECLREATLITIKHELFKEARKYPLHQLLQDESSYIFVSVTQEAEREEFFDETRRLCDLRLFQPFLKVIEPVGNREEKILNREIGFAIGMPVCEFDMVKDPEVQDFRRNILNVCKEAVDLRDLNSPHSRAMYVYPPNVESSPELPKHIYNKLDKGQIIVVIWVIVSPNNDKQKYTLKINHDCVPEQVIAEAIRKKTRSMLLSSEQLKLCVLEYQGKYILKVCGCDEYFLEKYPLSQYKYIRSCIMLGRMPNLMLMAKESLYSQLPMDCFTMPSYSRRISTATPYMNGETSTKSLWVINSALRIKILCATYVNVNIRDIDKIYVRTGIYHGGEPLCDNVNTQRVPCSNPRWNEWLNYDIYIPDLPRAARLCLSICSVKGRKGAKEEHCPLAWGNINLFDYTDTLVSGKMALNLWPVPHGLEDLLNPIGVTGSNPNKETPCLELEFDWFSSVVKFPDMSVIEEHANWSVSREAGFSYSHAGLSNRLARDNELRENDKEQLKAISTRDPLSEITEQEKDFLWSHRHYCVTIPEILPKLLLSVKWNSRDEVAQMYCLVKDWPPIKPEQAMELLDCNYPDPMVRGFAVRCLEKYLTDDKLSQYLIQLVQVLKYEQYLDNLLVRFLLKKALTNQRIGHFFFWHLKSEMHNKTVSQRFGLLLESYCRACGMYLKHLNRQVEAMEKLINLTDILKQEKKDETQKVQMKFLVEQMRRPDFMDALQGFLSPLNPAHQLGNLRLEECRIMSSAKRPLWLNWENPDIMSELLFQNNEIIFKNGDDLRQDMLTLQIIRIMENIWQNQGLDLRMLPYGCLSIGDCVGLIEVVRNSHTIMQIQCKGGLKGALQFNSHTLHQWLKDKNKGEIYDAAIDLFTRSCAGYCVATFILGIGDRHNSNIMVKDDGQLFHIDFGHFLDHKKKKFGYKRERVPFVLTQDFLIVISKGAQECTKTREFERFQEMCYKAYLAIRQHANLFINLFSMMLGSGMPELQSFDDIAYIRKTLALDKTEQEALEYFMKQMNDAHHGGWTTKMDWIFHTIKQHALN
# PI3Kα, sequence (P27986 whole entry partner, species assumed): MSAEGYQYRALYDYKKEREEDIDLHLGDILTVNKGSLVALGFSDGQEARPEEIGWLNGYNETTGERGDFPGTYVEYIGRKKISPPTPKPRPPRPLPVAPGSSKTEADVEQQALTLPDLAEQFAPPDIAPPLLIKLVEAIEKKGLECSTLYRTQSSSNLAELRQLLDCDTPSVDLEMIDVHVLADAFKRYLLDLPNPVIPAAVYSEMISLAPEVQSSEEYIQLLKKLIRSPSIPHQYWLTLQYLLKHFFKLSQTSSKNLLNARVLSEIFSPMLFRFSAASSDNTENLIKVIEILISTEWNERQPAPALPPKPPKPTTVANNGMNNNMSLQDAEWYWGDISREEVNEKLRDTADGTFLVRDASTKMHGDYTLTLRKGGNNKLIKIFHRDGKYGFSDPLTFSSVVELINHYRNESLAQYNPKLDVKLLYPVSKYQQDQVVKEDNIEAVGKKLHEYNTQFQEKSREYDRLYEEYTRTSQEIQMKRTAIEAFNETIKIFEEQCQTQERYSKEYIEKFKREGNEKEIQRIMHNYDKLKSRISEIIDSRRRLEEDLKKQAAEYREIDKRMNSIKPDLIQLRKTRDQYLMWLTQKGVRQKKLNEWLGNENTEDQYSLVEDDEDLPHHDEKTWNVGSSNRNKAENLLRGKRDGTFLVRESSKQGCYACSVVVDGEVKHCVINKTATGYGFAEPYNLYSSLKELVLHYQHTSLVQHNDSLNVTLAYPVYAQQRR
# PI3Kβ, sequence (P42338 whole entry, species assumed): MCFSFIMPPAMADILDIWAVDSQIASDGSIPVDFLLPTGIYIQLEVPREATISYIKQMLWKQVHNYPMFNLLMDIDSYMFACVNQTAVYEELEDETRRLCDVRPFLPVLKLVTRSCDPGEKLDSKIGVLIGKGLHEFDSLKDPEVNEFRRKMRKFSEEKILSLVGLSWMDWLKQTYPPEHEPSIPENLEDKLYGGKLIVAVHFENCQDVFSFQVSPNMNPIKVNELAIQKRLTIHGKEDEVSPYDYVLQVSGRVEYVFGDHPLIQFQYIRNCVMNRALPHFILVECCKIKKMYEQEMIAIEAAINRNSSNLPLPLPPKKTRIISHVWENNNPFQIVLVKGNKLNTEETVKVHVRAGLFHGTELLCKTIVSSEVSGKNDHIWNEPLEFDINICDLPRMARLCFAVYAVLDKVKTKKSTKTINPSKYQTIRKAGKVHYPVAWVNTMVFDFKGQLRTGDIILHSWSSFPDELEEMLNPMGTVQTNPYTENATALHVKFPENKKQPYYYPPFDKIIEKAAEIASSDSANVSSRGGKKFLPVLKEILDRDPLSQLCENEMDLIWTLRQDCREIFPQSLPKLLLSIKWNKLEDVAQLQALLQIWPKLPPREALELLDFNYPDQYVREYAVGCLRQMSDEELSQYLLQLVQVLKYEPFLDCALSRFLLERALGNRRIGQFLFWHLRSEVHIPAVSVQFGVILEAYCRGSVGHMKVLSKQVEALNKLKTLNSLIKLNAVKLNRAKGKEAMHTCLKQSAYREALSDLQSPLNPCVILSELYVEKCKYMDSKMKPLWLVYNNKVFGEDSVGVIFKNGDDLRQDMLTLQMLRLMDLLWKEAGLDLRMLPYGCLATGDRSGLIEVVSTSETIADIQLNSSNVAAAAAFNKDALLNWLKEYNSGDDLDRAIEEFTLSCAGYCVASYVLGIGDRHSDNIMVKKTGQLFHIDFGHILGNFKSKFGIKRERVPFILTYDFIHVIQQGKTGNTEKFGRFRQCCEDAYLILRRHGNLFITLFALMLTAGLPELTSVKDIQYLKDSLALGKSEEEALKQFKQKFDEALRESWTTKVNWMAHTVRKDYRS
# PI3Kβ, sequence (P27986 whole entry partner, species assumed): as the sequence (P27986 whole entry partner, species assumed) above
# PI4KIIIα, sequence (P42356 whole entry): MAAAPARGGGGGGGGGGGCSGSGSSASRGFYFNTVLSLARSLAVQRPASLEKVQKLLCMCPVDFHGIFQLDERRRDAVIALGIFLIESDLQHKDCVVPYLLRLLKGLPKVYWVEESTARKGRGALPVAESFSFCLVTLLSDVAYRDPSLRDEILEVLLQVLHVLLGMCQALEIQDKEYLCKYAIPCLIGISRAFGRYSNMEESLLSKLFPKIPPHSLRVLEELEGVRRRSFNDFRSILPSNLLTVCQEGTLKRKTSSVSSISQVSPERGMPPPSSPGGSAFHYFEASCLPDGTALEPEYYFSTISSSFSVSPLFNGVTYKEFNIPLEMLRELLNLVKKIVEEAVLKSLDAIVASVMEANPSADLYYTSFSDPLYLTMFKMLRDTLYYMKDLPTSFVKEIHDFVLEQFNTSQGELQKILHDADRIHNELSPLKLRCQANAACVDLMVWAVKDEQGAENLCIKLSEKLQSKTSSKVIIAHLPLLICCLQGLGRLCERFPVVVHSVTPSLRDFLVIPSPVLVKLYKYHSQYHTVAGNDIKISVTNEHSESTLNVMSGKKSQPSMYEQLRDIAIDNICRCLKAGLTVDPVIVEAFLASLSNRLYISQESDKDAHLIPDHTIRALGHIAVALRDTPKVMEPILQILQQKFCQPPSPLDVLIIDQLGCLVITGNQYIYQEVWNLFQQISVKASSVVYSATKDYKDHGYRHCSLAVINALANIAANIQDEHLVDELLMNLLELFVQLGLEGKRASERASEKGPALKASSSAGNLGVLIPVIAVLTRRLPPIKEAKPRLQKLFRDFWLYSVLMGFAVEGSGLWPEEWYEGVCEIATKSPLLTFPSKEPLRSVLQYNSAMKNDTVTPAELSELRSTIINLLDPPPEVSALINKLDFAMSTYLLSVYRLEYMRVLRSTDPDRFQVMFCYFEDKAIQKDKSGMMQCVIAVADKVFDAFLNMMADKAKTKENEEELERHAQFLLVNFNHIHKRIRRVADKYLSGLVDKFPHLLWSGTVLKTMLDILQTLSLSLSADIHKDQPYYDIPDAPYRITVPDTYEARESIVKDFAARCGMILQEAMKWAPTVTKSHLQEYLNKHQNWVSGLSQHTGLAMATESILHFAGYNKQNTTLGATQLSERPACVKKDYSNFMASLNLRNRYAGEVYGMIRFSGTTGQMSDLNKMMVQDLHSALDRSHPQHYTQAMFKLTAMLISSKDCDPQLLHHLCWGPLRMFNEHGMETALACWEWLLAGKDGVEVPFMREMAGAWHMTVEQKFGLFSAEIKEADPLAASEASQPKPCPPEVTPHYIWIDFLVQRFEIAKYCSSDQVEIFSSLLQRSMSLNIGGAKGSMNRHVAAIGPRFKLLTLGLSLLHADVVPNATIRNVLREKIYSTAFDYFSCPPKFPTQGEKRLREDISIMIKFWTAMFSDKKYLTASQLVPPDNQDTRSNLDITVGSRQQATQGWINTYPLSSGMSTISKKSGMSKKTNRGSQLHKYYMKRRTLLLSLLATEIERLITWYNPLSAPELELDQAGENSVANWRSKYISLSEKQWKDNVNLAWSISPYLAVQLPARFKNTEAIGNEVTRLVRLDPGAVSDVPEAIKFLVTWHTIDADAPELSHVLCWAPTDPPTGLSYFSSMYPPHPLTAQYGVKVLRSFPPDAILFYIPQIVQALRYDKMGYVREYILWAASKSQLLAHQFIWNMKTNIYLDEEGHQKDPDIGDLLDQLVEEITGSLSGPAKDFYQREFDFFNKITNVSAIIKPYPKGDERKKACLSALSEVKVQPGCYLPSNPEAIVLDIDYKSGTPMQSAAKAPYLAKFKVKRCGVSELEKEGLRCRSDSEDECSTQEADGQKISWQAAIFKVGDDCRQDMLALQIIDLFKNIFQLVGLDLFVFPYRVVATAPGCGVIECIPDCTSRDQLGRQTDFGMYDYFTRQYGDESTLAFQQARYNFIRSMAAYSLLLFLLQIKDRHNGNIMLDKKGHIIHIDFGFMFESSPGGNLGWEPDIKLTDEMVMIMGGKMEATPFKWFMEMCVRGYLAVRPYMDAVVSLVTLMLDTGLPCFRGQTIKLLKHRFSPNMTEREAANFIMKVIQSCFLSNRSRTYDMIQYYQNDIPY
Structure (SMILES),"Remaining after 1 h, RLM [1]",IC50 (coxsackie B3 virus),IC50 (polio virus Sabin 1),IC50 (Enterovirus 6),"Remaining after 1 h, HLM [2]",half-life at 5 μM [2],IC50 (Enterovirus 71),IC50 (Enterovirus 68),AUC(0-inf) (in vivo),AUC(0-t) (in vivo),AUCextrap (in vivo),Cmax (in vivo),MRT last (in vivo),Tmax (in vivo),half-life (in vivo),IC50 (PI4KIIIα),IC50 (PI4KIIIβ),IC50 (PI3Kα),IC50 (PI3Kβ),IC50 (Enterovirus 30),also measured
"Cc1cc(NCc2ccncc2)n2nc(C)c(-c3ccc4c(c3)c(C)nn4C)c2n1 [Example 8, 3-(1,3-dimethyl-1H-indazol-5-yl)-2,5-dimethyl-N-(pyridin-4-ylmethyl)pyrazolo[1,5-a]pyrimidin-7-amine]",90%,< 0.1 nM,< 0.1 nM,< 100 nM,86%,> 120 min,< 0.1 nM,< 0.1 nM,197 ± 27.1 µg·h/mL,185 ± 13.3 µg·h/mL,5.7 ± 6.1%,12900 ± 700 ng/mL,6.8 ± 0.8 h,1.7 ± 0.6 h,324 ± 150 min,1300 nM,0.9 nM,> 1000 nM,1500 nM,< 1 nM,"IC50 (coxsackie B5 virus): < 0.1 nM; fraction unbound at 4 h, 5 μM (in vitro; human): 0.027; fraction unbound at 4 h, 5 μM (in vitro; rat): 0.024; IC50 (coxsackie B2 virus): < 0.1 nM; IC50 (coxsackie B1 virus): < 0.1 nM; IC50 (coxsackie B4 virus): < 10 nM"
"Cc1nc(NCc2ccncc2)n2nc(C)c(-c3ccc4c(c3)c(C)nn4C)c2n1 [Example 20, 8-(1,3-dimethyl-1H-indazol-5-yl)-2,7-dimethyl-N-(pyridin-4-ylmethyl)pyrazolo[1,5-a][1,3,5]triazin-4-amine]",96%,< 1 nM,< 1 nM,< 1000 nM,78%,> 120 min,< 10 nM,< 10 nM,115 ± 9.4 µg·h/mL,110 ± 8.3 µg·h/mL,5.1 ± 4.9%,8000 ± 1500 ng/mL,6.8 ± 0.9 h,2 h,300 ± 138 min,> 1000 nM,1.2 nM,> 1000 nM,> 1000 nM,< 10 nM,"IC50 (coxsackie B5 virus): < 1 nM; fraction unbound at 4 h, 5 μM (in vitro; human): 0.906; fraction unbound at 4 h, 5 μM (in vitro; rat): 0.031; IC50 (coxsackie B2 virus): < 1 nM; IC50 (coxsackie B1 virus): < 1 nM; IC50 (coxsackie B4 virus): < 10 nM"
